Source: US11795510B2, “Identification of epigenomic reprogramming in cancer and uses thereof” (The Johns Hopkins University, priority 2016, dated 2023)
“Also recorded” adds a separate entry of the source.

Columns and labels:
Format in all cases: cell-based, human
[1] = test system: A38Lg cells; assay: RNA-seq of control (DMSO) and 6AN treated cells, differentially expressed genes
Method: (§1) RNAi experiments were performed with siRNA transfections (Oligofectamine, Life Technologies) using negative control siRNA (Sigma, SIC001) and pre-designed siRNA oligonucleotides against indicated genes in parallel (Sigma, PGD: SASI_Hs02 00334150, CDH2: SASI_Hs01_00153995, TOP2B: SASI_Hs02_00311874). siRNAs against mutant KRAS^G12V (CUACGCCAACAGCUCCAAC) (SEQ ID NO:1) were custom designed. Cells were incubated with siRNAs for 4 days after transfection and harvested. For drug treatments in 2-D, cells were grown to 70-80% confluency and treated for 3 days with 250 uM 6AN or DMSO negative control.
(§2) Tests for statistical significance (two-tailed students t-test) were performed on data collected from technical replicate (performed in parallel at the same time) or biological replicate (performed at different times) experiments as indicated in the figure legends using excel software for western blot densitometry, MTT assays, and tumor measurements. Whole genome bisulfite sequencing and RNA-seq were performed with HiSeq instruments (Illumina) as described in Hansen et al. (Increased methylation variation in epigenetic domains across cancer types. Nat Genet 43, 768-75 (2011)). ChIP assays were performed as previously described for fixed cells with sonication. For ChIP-qPCR, equal amounts of paired input/IP DNA were amplified by real-time PCR (Roche LightCycler96) and fold enrichments calculated. Primer sequences are listed in Supplementary Table 11. […] IP sequencing reads were normalized to their corresponding inputs. Sequencing procedures, bioinformatics methods including domain calls, and statistical analyses are described in detail within the supplementary methods section.
RNA-Seq data processing. 100 bp paired-end HiSeq2000 sequencing reads were aligned against human genome (hg19) by OSA (version 2.0.1) with default parameters. After alignment, only uniquely aligned reads were kept for further analysis. Gene annotation information was downloaded from ENSEMBL (ensembl.com, release 66). Reads count for each gene of all samples were estimated using HTSeq (huber.embl.de/users/anders/HTSeq/doc/overview.html) and then were used to identify differentially expressed (DE) genes using DESeq package. Genes with FDR<0.01 and fold-change>1.5 were considered DE genes.

[2] = test system: H3K9Me2, H3K27Ac, H3K27Me3 in LOCK regions of A38Lg; assay: ChIP-seq on control (DMSO) and 6AN-treated A38Lg cells; conditions: DMSO vs. 6AN
Method: as §1
as §2, with “Sequencing procedures, bioinformatics methods including domain calls, and statistical analyses are described in detail within the supplementary methods section.” left out
Chip-seq data processing. For 46 bp paired-end Illumina HiSeq2000 sequencing data, reads were aligned against human genome (hg19) using BWA with default parameters as described in Li et al. (Fast and accurate short read alignment with Burrows-Wheeler transform. Bioinformatics 25, 1754-60 (2009)). After alignment, duplicate reads were removed and only uniquely aligned reads were kept for further analysis. For 48 bp single-end Solid sequencing data, reads were aligned using Bowtie^7 with default parameters and only uniquely aligned reads were kept for further analysis. […]

[3] = test system: H3K9Me2 and H3K27Ac across CDH2 and TOP2B gene loci; assay: ChIP-qPCR across CDH2 and TOP2B loci
Method: as §2

[4] = genes down in A38Lg vs A38Per and down in 6AN vs DMSO treated A38Lg, RNA-seq DE genes
[5] = genes down in A38Lg vs A38Per and up in 6AN vs DMSO treated A38Lg, RNA-seq DE genes
[6] = genes recurrently down vs. A38Per and down in 6AN treated A38Lg cells, out of all 6AN down genes
[7] = genes recurrently down vs. A38Per and down in 6AN treated A38Lg cells, out of all recurrent down genes
[8] = genes recurrently down vs. A38Per and up in 6AN treated A38Lg cells, out of all 6AN up genes
[9] = genes recurrently down vs. A38Per and up in 6AN treated A38Lg cells, out of all recurrent down genes
[10] = genes recurrently up across all samples vs. A38Per and down in 6AN vs. DMSO treated A38Lg cells, out of all 6AN down genes
[11] = genes recurrently up vs. A38Per and down in 6AN treated A38Lg cells, out of all recurrent up genes
[12] = genes recurrently up vs. A38Per and up in 6AN treated A38Lg cells, out of all recurrent up genes
[13] = genes up in A38Lg vs A38Per and down in 6AN vs DMSO treated A38Lg, RNA-seq DE genes
[14] = genes up in A38Lg vs A38Per and up in 6AN vs DMSO treated A38Lg, RNA-seq DE genes

## NC(=O)c1ccc(N)nc1 [6AN, 6-aminonicotinamide]
[1]; [4]
  Coregulated/6AN down (38Lg down/6AN down): coregulated genes / all 6AN down genes: 277/1968
  Coregulated/38Lg down (38Lg down/6AN down): coregulated genes / all 38Lg down genes: 277/4402
[1]; genes down in A38Lg vs A38Per and down in 6AN vs DMSO treated A38Lg, share of 6AN down genes
  Coregulated/6AN down (38Lg down/6AN down), percent: (14%)
[1]; genes down in A38Lg vs A38Per and down in 6AN vs DMSO treated A38Lg, share of 38Lg down genes
  Coregulated/38Lg down (38Lg down/6AN down), percent: (0.06%)
[1]; [5]
  Coregulated/6AN up (38Lg down/6AN up): coregulated genes / all 6AN up genes: 915/2192
  Coregulated/38Lg down (38Lg down/6AN up): coregulated genes / all 38Lg down genes: 915/4402
[1]; genes down in A38Lg vs A38Per and up in 6AN vs DMSO treated A38Lg, share of 6AN up genes
  Coregulated/6AN up (38Lg down/6AN up), percent: (42%)
[1]; genes down in A38Lg vs A38Per and up in 6AN vs DMSO treated A38Lg, share of 38Lg down genes
  Coregulated/38Lg down (38Lg down/6AN up), percent: (21%)
[1]; [6]
  Recurrent Down/6AN Down: Coregulated/6AN down (gene count ratio): 111/1968
  Recurrent Down/6AN Down: Coregulated/6AN down (percent): (0.06%)
[1]; [7]
  Recurrent Down/6AN Down: Coregulated/Recurrent down (gene count ratio): 111/1842
  Recurrent Down/6AN Down: Coregulated/Recurrent down (percent): (0.06%)
[1]; [8]
  Recurrent Down/6AN Up: Coregulated/6AN up (gene count ratio): 332/2192
  Recurrent Down/6AN Up: Coregulated/6AN up (percent): (15%)
[1]; [9]
  Recurrent Down/6AN Up: Coregulated/Recurrent down (gene count ratio): 332/1842
  Recurrent Down/6AN Up: Coregulated/Recurrent down (percent): (18%)
[1]; [10]
  Recurrent Up/6AN Down: Coregulated/6AN down (gene count ratio): 255/1968
  Recurrent Up/6AN Down: Coregulated/6AN down (percent): (13%)
[1]; [11]
  Recurrent Up/6AN Down: Coregulated/Recurrent up (gene count ratio): 255/891
  Recurrent Up/6AN Down: Coregulated/Recurrent up (percent): (28.6%)
[1]; genes recurrently up vs. A38Per and up in 6AN treated A38Lg cells, out of all 6AN up genes
  Recurrent Up/6AN Up: Coregulated/6AN up (gene count ratio): 82/2192
[1]; [12]
  Recurrent Up/6AN Up: Coregulated/Recurrent up (gene count ratio): 82/891
  Recurrent Up/6AN Up: Coregulated/Recurrent up (percent): (9%)
[1]; [13]
  Coregulated/6AN down (38Lg up/6AN down): coregulated genes / all 6AN down genes: 1032/1968
  Coregulated/38Lg up (38Lg up/6AN down): coregulated genes / all 38Lg up genes: 1032/4368
[1]; genes up in A38Lg vs A38Per and down in 6AN vs DMSO treated A38Lg, share of 6AN down genes
  Coregulated/6AN down (38Lg up/6AN down), percent: (52%)
[1]; genes up in A38Lg vs A38Per and down in 6AN vs DMSO treated A38Lg, share of 38Lg up genes
  Coregulated/38Lg up (38Lg up/6AN down), percent: (24%)
[1]; [14]
  Coregulated/6AN up (38Lg up/6AN up): coregulated genes / all 6AN up genes: 379/2192
  Coregulated/38Lg up (38Lg up/6AN up): coregulated genes / all 38Lg up genes: 379/4368
[1]; genes up in A38Lg vs A38Per and up in 6AN vs DMSO treated A38Lg, share of 6AN up genes
  Coregulated/6AN up (38Lg up/6AN up), percent: (17%)
[1]; genes up in A38Lg vs A38Per and up in 6AN vs DMSO treated A38Lg, share of 38Lg up genes
  Coregulated/38Lg up (38Lg up/6AN up), percent: (0.09%)
[2]
  H3K27Ac at genes repressed from LOCKs (ChIP-seq): reduced
  LOCK-wide H3K9Me2 from reprogrammed regions (ChIP-seq): quantitative increase
  levels of H3K27Me3 (ChIP-seq): remained stable; also recorded: unchanged
[3]; matched lung metastasis A38Lg
  H3K9Me2 across CDH2/TOP2B loci (ChIP-qPCR): enrichment of H3K9Me2 across both loci; also recorded: induced spreading of H3K9Me2 across the locus
  H3K27Ac over the CDH2 genic region (ChIP-qPCR): concordant reductions; also recorded: corresponding loss of H3K27Ac
[3]; peritoneal subclone A38Per
  H3K9Me2 and H3K27Ac enrichments across CDH2/TOP2B loci (ChIP-qPCR), control vs 6AN: nearly identical enrichments; also recorded: no effect
